These results are taken from patent US20230000943A1, “METHOD OF INDUCING SYNAPTOGENESIS BY ADMINISTERING ANGIOTENSIN AND ANALOGUES THEREOF” (Synaptogenix, Inc., priority 2021, published 2023).

pEC50, pKi: −log10 of the molar value. Like-named read-outs stand apart in the source and are kept apart here.

Data set [1] has as its target PKC. The following applies: cited from earlier work.
Data set [2] deals with PKC. The settings on record: competes with [3H] phorbol dibutyrate; read-out: Ki for binding to PKC; cited from earlier work.
The test system of data set [3] is squamous cell carcinoma and melanoma. The settings on record: used topically; cited from earlier work.
Data set [4] has as its system NCI 60 cell line. The settings on record: NCI 60 cell line screen; cited from earlier work.
Data set [5] deals with protein kinase C. The following applies: specifically the (−)-enantiomer; read-out: potency (EC50); cited from earlier work.
Data set [6] deals with PSD-95. In words: Mouse dosing study: PSD-95 levels. It is filed as in vivo, mice. The settings on record: 25 μg/m^2 i.v. once per week, after three weeks. An excerpt:
(§1) Mouse studies may be performed using an angiotensin, as described above, in accordance with the protocol described below. The following metrics may be used to evaluate dosing regimens: induction of brain postsynaptic anchoring protein PSD-95, upregulation of BDNF levels in brain, upregulation of HGF levels in brain, minimal downregulation of PKC-ε levels, and elevation of brain and plasma concentrations of the angiotensin. Groups of 2-3 mice may be formed and housed in an approved research animal facility. Water may be given ad libitum. A first study involves three groups of mice with animals in each group dosed weekly for 1, 2, 3, or 6 consecutive weeks. Each group has its own control group containing the same number of mice. For example, mice in the first, second and third groups may receive an intravenous (i.v.) injection of 10 μg/m^2, 15 μg/m^2, and 25 μg/m^2 dose of an angiotensin. For each dose, mice in that group may receive a single injection of the angiotensin weekly for a predetermined number of consecutive weeks. Following dosing, mice are sacrificed, and the blood and brain of each animal is collected for further analysis.

Data set [7] has as its system BDNF. In words: Mouse dosing study: brain BDNF levels. It is filed as in vivo. The settings on record: mice.
Source text: as §1

Details of data set [8]: species or system mice. The settings on record: mouse, in vivo, iv.
Source text: as §1

Where [9] appears, read: A-ring bryologs, read-out: affinity for PKC.

Turning to `CCCCCCCC(=O)O[C@H]1/C(=C/C(=O)OC)CC2C[C@H](CO)OC(=O)C[C@H](O)C[C@@H]3CCC[C@H](C[C@@H]4CCO[C@H](/C=C/C(C)(C)[C@]1(O)O2)O4)O3` [Analog 1], the pKi in data set [1] (Table 1 Bryologs, read-out: PKC Affin) is 9.60. The “affinity for PKC (in words)” value in data set [1] (compared with Bryostatin-1 and the other bryologs) is reported as “highest affinity for PKC”.
For the compound `CC1=C[C@]23C(=O)[C@@H](C=C(COC(=O)c4ccccc4)[C@@H](O)[C@]2(O)[C@H]1OC(=O)c1ccccc1)[C@H]1[C@@H](C[C@H]3C)C1(C)C` [Ingenol 3,20-dibenzoate], the pKi in data set [2] was 6.62.
Regarding `C/C=C(/C)C(=O)O[C@H]1C(C)=C[C@]23C(=O)[C@@H](C=C(CO)[C@@H](O)[C@]12O)[C@H]1[C@@H](C[C@H]3C)C1(C)C` [Ingenol-3-angelate], the antitumor activity entry in data set [3] was “exhibits antitumor activity”.
`CC1=CC[C@H](C)C(C)(C)[C@@H]1/C=C/C(C)=C/CC[C@@]1(CO)[C@H](CCCO)/C(=C(/C)C=O)CC[C@]1(C)O` [Iripallidal]: the “GI50 (concentration required to inhibit growth by 50%)” value in data set [4] is reported as “micromolar to nanomolar range”.
Regarding `CCCCCCCC(=O)OC1C(=CC(=O)OC)CC2CC(CO)OC(=O)CC(O)CCOC(C(C)(C)C)CC3CCOC(C=CC(C)(C)C1(O)O2)O3` (stereo not shown) [bryolog 3], the pKi in data set [1] (setting [9]) was 8.19.
Take `CCCCCCCC(=O)OC1C(=CC(=O)OC)CC2CC(CO)OC(=O)CC(O)CCOC(c3ccccc3)CC3CCOC(C=CC(C)(C)C1(O)O2)O3` (stereo not shown) [bryolog 4]: the pKi in data set [1] (setting [9]) is 8.64.
On to `CCCCCCCC(=O)OC1C(=CC(=O)OC)CC2CC(CO)OC(=O)CC(O)CCOC(CCCc3ccc(Br)cc3)CC3CCOC(C=CC(C)(C)C1(O)O2)O3` (stereo not shown) [bryolog 5], for which the pKi in data set [1] (setting [9]) is 8.72.
As to `CCCCCCCCc1ccc2c3c(c[nH]c13)C[C@@H](CO)NC(=O)[C@H](C(C)C)N2C` [octylindolactam V, Octylindolactam V], the pEC50 – broadly, −log10 of the EC50, conventionally taken in molar units – in data set [5] is 7.54.
For angiotensin, the “PSD-95 in brain and blood samples” value in data set [6] is “higher amounts of PSD-95”. The “brain BDNF levels” value in data set [7] (15 μg/m^2 for three consecutive weeks) is given as “some increase”; in data set [7] (25 μg/m^2), “maximum increase”; in data set [7] (25 μg/m^2, 3 on/3 off/3 on regimen) it was “remain elevated”; in data set [7] (after three consecutive weekly doses at 25 μg/m^2) it was “highest level”. Moreover, the “concentration in brain relative to plasma” value in data set [8] is recorded as “less than its concentration in plasma”. In addition, in data set [8], the “crossing of the blood-brain-barrier” value is “crosses the BBB”.
